# Positions of bridges follow the written chain, without caps; N, C: chain ends. No end group written: not given here.
# Legend:
# MMP-9 = molecular target: T1, MMP-9 (Homo sapiens, UniProt P14780); assay: Gelatinase assay with fluorogenic peptide substrate; assay type: biochemical; conditions: 100 μM EDTA, MMP-9 5 nM
# T1 construct: made in house
# Method: The activity of MMP-9 was measured also using the fluorogenic peptide substrate MCA-Pro-Leu-Ala-Nva-Dpa-Ala-Arg (Calbiochem, San Diego, Calif., USA). More specifically, 50 ng of MMP-9 was preincubated in PBS for 30 min at RT in the absence or presence of CTT or its liposome complex. Subsequently, the fluorogenic substrate was added to a final concentration of 0.1 mM and the incubation was continued at 37° C. for 15 min, whereafter fluorescence intensities were measured with exitation at 340 nm and emission at 390 nm in a microtiter plate reader.
# HT1080 cells = assay: Blocking of CTT-liposome uptake by antibodies and proteinase inhibitors; assay type: cell-based, human; conditions: TIMP-2 10 μg/ml, Marimastat 50 μM, EDTA 500 μM, aprotinin 1 μg/ml
# Method: We further investigated if cell surface-bound gelatinases were the receptors for the CTT-containing liposomes. Cells were washed to remove soluble forms of gelatinases, and then preincubated for 30 min with MMP inhibitors or specific antibodies before the addition of liposomes.
# (§1) We also preincubated cells with phorbol ester (TPA) (50 nM). Preincubation times varied from 15 to 75 min. Treatment of cells by phorbol ester (TPA) increases both expression and secretion of MMP-9 (Toth et al., 1997). […] M-17 inhibits the binding of MMP-9 to the substrate and this inhibition is expected to be concentration dependent. It is not known if rabbit polyclonal antibody blocks human MMP-2 (Murphy et al., 1994). Final concentrations of the indicated peptide, Adriamycin, antibodies and liposomes were 85 μM, 0.2 mM, 20 μg/ml, and 0.4 μM, respectively.
# cells = assay: Effect of phorbol ester (TPA) preincubation on CTT-liposome uptake; assay type: cell-based; conditions: TPA 50 nM
# Method: as §1, with “1997). Results are presented as RFI=I/I0, where RFI is relative fluorescence intensity, I0 is the emission intensity for the control, 2 μM rhodamine B in LUVs without the peptides, and I is the rhodamine emission for the peptide-liposome complexes taken up by the cells.” for “1997).”
# U937 cells [1] = assay: Cell killing by Adriamycin-containing liposomes, EthD-1 viability assay; assay type: cell-based; conditions: U937, 24 h, peptide 85 μM, Adriamycin 0.4 μM
# Method: Viability assays. Peptide-liposome complexes with the encapsulated adriamycin were made as described above, yielding final concentrations of peptide, lipid, and adriamycin of 85 μM, 0.2 mM, and 0.4 μM, respectively, and were subsequently added to a ten μl (10^5 cells) sample of U937 cells. For the detection of dead cells EthD-1 was used. This fluorophore is membrane-impermeable and emits fluorescence only when bound to DNA (Papadopoulos et al., 1994). Accordingly, EthD-1 readily enters dead cells and binds to their DNA, its fluorescence intensity correlating to the amount of dead cells. EthD-1 emission was measured using microplate reader with excitation at 495 nm and emission at 635 nm. Student's t-test was used to assess statistical significance.
# [2] = Assay for lipid mixing (liposome fusion, NBD-PE/DPPRho); assay type: physicochemical; conditions: within 15 min
# Method: The extent of exposure of Trp to the aqueous phase was studied using I— as a collisional quencher (Lakowicz, 1999). The extent of quenching was calculated by using the equation: F0/F=1+k[Q]=1+kqτ0[Q] where F0 and F are Trp fluorescence intensities at 345 nm in the absence and presence of the quencher, Q, τ0 is Trp fluorescence lifetime in the absence of the quencher, k is the Stern-Volmer constant (obtained from the slope of the linear fit of the data). Fluorescence of Trp in CTT (5 μM) and its quenching were measured in the absence and presence of POPC/POPE (80:20, mol/mol) LUVs (final lipid concentration of 0.5 mM). The results were corrected for background caused by PBS and liposomes. Assay for lipid mixing. The ability of the CTT, CLP, STT, and CWL peptides to induce liposome fusion was assessed by measuring lipid mixing, as described earlier (Struck et al., 1981). In brief, NBD-PE (X=0.01) and DPPRho (X=0.01) were incorporated into liposomes (POPC/POPE, 78/20, mol/mol). Due to the spectral overlap of NBD-PE (donor) emission and DPPRho (acceptor) absorption resonance energy transfer between these dyes is highly efficient. As liposomes containing NBD-PE and DPPRho are mixed with non-labeled liposomes, fusion is observed as an increase in the emission intensity of NBD-PE due to the dilution of probes. Excitation and emission wavelengths for NBD-PE at 430 nm and 530 nm were used. All fluorescence measurements were done at 37° C.
# [3] = Penetration of peptides into lipid monolayers (surface pressure); assay type: physicochemical; conditions: eggPC monolayer, peptide 200 μM
# Method: Interaction of peptides with lipid monolayers. Penetration of peptides into mono-molecular lipid films was measured using magnetically stirred circular wells (subphase volume 400 μl). Surface pressure (π) was monitored with a Wilhelmy wire attached to a microbalance (μ TroughS, Kibron Inc., Helsinki, Finland) connected to a Pentium PC. Lipids were spread on the air-buffer (PBS, pH 7) interface in chloroform (approx. one mg/ml) to different initial surface pressures (π0) and were allowed to equilibrate for 15 min before the addition of the indicated peptides (4 μ1,10 mg/ml in H2O and CWL in DMSO) into the subphase. The increment in π from the initial surface pressures (π0) after the addition of peptide was complete in approximately 20 min and the difference between π0 and the value observed after binding of the peptide into the film was taken as Δπ. All measurements were performed at ambient temperature (˜+24° C.). The data are represented as Δπ vs. […] (Brockman, 1999).
# U937 cells [4] = assay: Uptake of liposome-encapsulated rhodamine B by U937 cells; assay type: cell-based; conditions: U937, fluorescence plate-reader
# Method: In another series of experiments the water-soluble fluorescent marker rhodamine B was encapsulated into liposomes and its uptake by cells was measured. Samples for rhodamine B uptake were prepared by mixing 60 μl of POPC/POPE (80/20, mol/mol, one mM) liposomes containing 10 μM rhodamine B to 300 μl of DMEM medium supplemented with 10% fetal bovine serum, Glutamax I, penicillin 100 U/ml and streptomycin 0.1 mg/ml. Peptides were then added to obtain a final concentration of […]. Ten μl (10^5 cells) of medium containing the indicated cells were combined with the LUVs. After an incubation for 15 min at 37° C. or +4° C. liposomes not bound to the cells were removed from 96-well plates by rinsing three times with cold PBS. The +4° C. temperature served as a control for non-endocytotic liposome uptake by cells (Oess and Hildt, 2000). The relative amount of rhodamine B associated with the cells was determined using microplate reader with excitation at 535 nm and emission at 595 nm.
# as §1, with “1997). Results are presented as RFI=I/I0, where RFI is relative fluorescence intensity, I0 is the emission intensity for the control, 2 μM rhodamine B in LUVs without the peptides, and I is the rhodamine emission for the peptide-liposome complexes taken up by the cells.” for “1997).”
# Cell cultures and fluorescence microscopy. U937 (ECACC 85011440), HT 1080 (ECACC 85111505), and CHO (ECACC 85050302) cells were cultured in RPMI or DMEM medium supplemented with 10% fetal bovine serum, Glutamax I, penicillin (100 U/ml), and streptomycin (0.1 mg/ml). Uptake of rhodamine B containing liposomes by the cultured cells was verified by fluorescence microscopy. An inverted fluorescence microscope (Zeiss IM 35) equipped with Nikon extra long working distance objectives (20×) and (40×) were used. Samples were prepared as described for the rhodamine uptake assay, with slight modifications. Accordingly, instead of washing, U937, HT 1080, and CHO cells with the rhodamine-containing liposomes and in cell culture medium were transferred into Nunclon 48 plate wells. Excitation and emission wavelengths were selected by suitable bandpass filters (Melles-Griot) transmitting in the range 535 nm and >600 nm, respectively. Fluorescence images were viewed with a Peltier-cooled digital camera (C4742-95, Hamamatsu, Japan) connected to a computer and operated by software (Hipic 5.0) provided by the instrument manufacturer.
# MMP-2 = molecular target: T2, MMP-2 (Homo sapiens, UniProt P08253); assay: Casein zymography, inhibition of MMP-2; assay type: biochemical; conditions: 85 μM peptide
# T2 construct: purchased Boehringer Mannheim GmbH (Germany)
# T2 sequence (P08253 110-660): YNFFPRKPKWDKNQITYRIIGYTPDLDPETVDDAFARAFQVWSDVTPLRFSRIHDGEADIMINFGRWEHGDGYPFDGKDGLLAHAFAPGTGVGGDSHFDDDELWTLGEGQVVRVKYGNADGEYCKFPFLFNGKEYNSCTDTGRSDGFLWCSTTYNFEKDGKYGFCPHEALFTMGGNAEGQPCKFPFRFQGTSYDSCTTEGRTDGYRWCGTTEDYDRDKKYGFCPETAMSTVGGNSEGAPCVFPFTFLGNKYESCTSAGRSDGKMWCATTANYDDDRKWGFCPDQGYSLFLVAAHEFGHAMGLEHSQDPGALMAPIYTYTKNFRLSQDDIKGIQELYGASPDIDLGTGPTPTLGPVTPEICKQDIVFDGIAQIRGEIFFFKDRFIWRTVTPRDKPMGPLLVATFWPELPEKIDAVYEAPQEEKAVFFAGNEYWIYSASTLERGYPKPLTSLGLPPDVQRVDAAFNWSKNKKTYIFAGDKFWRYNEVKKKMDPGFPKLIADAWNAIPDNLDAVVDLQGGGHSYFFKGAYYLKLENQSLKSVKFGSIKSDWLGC
# Method: Assay for gelatinases. Inhibition of MMP-9 and MMP-2 by the different synthetic peptides was measured using casein zymography (Halinen et al., 1996). MMP-9 was purified as described (Sorsa et al., 1997). Subsequently, MMP-2 (2.5 μg) or MMP-9 (2.5 μg) was run on a 10% SDS-PAGE containing two mg/ml casein. The gel was first washed in Triton X-100 containing buffer to remove SDS, and it was cut into five slices which were immersed into peptide (CTT, CLP, CWL or STT) containing solutions (85 μM). After incubation for 48 hrs at 37° C., the gels were stained with Coomassie blue, scanned, and the digested areas quantitated using image analysis (Global Lab Image 3.2, Data Translation Inc. and Acuity Imaging Inc., Marlboro, Mass., USA).
# T1 sequence (P14780 94-707): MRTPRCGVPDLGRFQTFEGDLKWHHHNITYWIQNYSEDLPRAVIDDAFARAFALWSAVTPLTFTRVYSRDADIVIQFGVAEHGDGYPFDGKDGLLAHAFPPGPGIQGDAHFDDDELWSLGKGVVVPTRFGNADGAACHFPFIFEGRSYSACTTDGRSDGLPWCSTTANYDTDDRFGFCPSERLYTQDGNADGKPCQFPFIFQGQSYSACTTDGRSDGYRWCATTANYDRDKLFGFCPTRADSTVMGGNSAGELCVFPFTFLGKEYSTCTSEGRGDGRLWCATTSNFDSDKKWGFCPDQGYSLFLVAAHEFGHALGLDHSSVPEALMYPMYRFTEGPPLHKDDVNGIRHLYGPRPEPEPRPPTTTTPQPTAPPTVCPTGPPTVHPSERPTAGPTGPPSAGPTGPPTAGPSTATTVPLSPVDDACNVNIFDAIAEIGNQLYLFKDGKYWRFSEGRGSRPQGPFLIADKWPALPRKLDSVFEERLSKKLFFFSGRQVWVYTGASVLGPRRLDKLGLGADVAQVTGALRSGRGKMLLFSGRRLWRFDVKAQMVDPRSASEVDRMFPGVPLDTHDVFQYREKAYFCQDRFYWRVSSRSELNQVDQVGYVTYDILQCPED
compound,measurement,setting,value
"O=C(O)CN(CCN(CC(=O)O)CC(=O)O)CC(=O)O [EDTA, reference compound]",Inhibition of MMP-9,MMP-9,Complete inhibition
CNC(=O)[C@@H](NC(=O)[C@H](CC(C)C)[C@H](O)C(=O)NO)C(C)(C)C [Marimastat],Inhibition of liposome transfer into cells,HT1080 cells,approx. 50%
CCCCCCCCCCCCCC(=O)O[C@@H]1[C@@H](C)[C@@]2(O)[C@@H](C=C(CO)C[C@]3(O)C(=O)C(C)=C[C@@H]23)[C@H]2C(C)(C)[C@]12OC(C)=O [TPA],Effect on uptake of CTT-liposomes,cells; prolonged incubation (75 min),inhibited
same,Effect on uptake of CTT-liposomes,cells; short exposure time (15 min),increased
"CLPGHWGFPSC (cysteine pairing not given here) [CTT homolog, part of EGF-7 domain in human laminin β-1 chain]",Increase in killing of cells vs Adriamycin liposomes without peptide,U937 cells [1],1.3 fold
same,Lipid mixing / vesicle fusion (NBD-PE emission),[2],lack of lipid mixing
same,Initial monolayer packing pressure above which membrane penetration was abolished,[3],33 mN/m
same,Enhancement of uptake of liposome-encapsulated rhodamine vs liposomes lacking peptide,U937 cells [4],Only minor effect
"Cys-Trp-Leu-Thr-Phe-Thr-His-Gly-Thr-Cys (CWLTFTHGTC; disulfide 1-10) [scrambled cyclic peptide, reference compound]",Increase in killing of cells vs Adriamycin liposomes without peptide,U937 cells [1],not
same,Enhancement of uptake of liposome-encapsulated rhodamine vs liposomes lacking peptide,U937 cells [4],inefficient
STTHWGFTLS,Increase in killing of cells vs Adriamycin liposomes without peptide,U937 cells [1],1.7 fold
same,Inhibition of MMP-2 activity,MMP-2,approx. 30%
same,Lipid mixing / vesicle fusion (NBD-PE emission),[2],lack of lipid mixing
same,Initial monolayer packing pressure above which membrane penetration was abolished,[3],31 mN/m
same,Enhancement of uptake of liposome-encapsulated rhodamine vs liposomes lacking peptide,U937 cells [4],Only minor effect
aprotinin,Inhibition of liposome transfer into cells,HT1080 cells,no significant inhibitory effect
